Here are results for three molecules from the NIST ThermoML archive (doi:10.1021/je0201119).

Molecules are shown by their SMILES. ± gives the expanded uncertainty stated by the source.

Data set [1] in a line: xn = mol fraction of the nth substance listed. The following applies: 92 kPa, Liquid, x2 = 0; for mass density: Vibrating tube method.
The conditions of data set [2]: 92 kPa, Liquid; for mass density: Vibrating tube method.

Regarding `O` [water] + CC(C)(N)CO, the viscosity in data set [1] (298.15 K) is 0.89 ± 0.089 mPa·s; in data set [1] (303.15 K) it was 0.805 ± 0.082 mPa·s; in data set [1] (313.15 K), 0.653 ± 0.069 mPa·s; in data set [1] (323.15 K), 0.547 ± 0.06 mPa·s; in data set [1] (333.15 K) it was 0.466 ± 0.053 mPa·s; in data set [1] (343.15 K), 0.405 ± 0.047 mPa·s. The values for the mass density in data set [1] (323.15 K), in data set [1] (333.15 K) and in data set [1] (343.15 K) were 988.04 ± 0.06 kg/m3, 983.12 ± 0.06 kg/m3 and 977.77 ± 0.06 kg/m3, respectively.
`O` [water]: the viscosity was 0.89 ± 0.089 mPa·s in data set [2] (298.15 K); 0.805 ± 0.082 mPa·s in data set [2] (303.15 K); 0.653 ± 0.069 mPa·s in data set [2] (313.15 K); 0.547 ± 0.06 mPa·s in data set [2] (323.15 K); 0.466 ± 0.053 mPa·s in data set [2] (333.15 K); 0.405 ± 0.047 mPa·s in data set [2] (343.15 K). Besides, the mass density in data set [2] (323.15 K) worked out at 988.04 ± 0.06 kg/m3; in data set [2] (333.15 K), 983.12 ± 0.06 kg/m3; in data set [2] (343.15 K), 977.77 ± 0.06 kg/m3.
On to `CC(C)(N)CO` [2-amino-2-methylpropan-1-ol], for which the viscosity in data set [2] (313.15 K) stood at 47.8 ± 3.2 mPa·s; in data set [2] (323.15 K), 25.1 ± 1.7 mPa·s; in data set [2] (333.15 K), 14.4 ± 1 mPa·s; in data set [2] (343.15 K), 8.91 ± 0.69 mPa·s. In addition, the mass density in data set [2] (313.15 K) was 919.65 ± 1.4 kg/m3; in data set [2] (323.15 K), 911.24 ± 1.4 kg/m3; in data set [2] (333.15 K) it was 902.87 ± 1.4 kg/m3; in data set [2] (343.15 K), 894.28 ± 1.4 kg/m3.
